Calls of active or inactive are those of the source. The rule behind the calls is not given here.
Experiments:
PC-3 [1] = assay: Induction of apoptosis in human PC3 cells assessed as decrease in cell membrane smoothness at 2.5 uM after 24 hrs by inverted microscopic analysis; assay type: functional, cell-based
PC-3 [2] = assay: Induction of apoptosis in human PC3 cells assessed as shrunken nucleus at 2.5 uM after 24 hrs by inverted microscopic analysis; assay type: functional, cell-based
PC-3 [3] = assay: Induction of apoptosis in human PC3 cells assessed as cell shrinkage at 2.5 uM after 24 hrs by Hoechst 33258 staining based inverted microscopic analysis; assay type: functional
PC-3 [4] = assay: Induction of apoptosis in human PC3 cells assessed as chromatin condensation at 2.5 uM after 24 hrs by Hoechst 33258-based inverted fluorescence microscopy; assay type: functional, cell-based
PC-3 [5] = assay: Induction of apoptosis in human PC3 cells assessed as formation of apoptotic bodies at 2.5 uM after 24 hrs by 33258-based inverted fluorescence microscopy; assay type: functional, cell-based
PC-3 [6] = assay: Induction of apoptosis in human PC3 cells after 24 hrs by Annexin V-FITC/propidium iodide double staining based flow cytometry; assay type: functional, cell-based
PC-3 [7] = assay: Induction of apoptosis in human PC3 cells assessed as activation of BAX at 2.5 uM after 24 hrs by Western blot analysis; assay type: functional, cell-based
PC-3 [8] = assay: Induction of apoptosis in human PC3 cells assessed as suppression of bcl2 at 2.5 uM after 24 hrs by Western blot analysis; assay type: functional, cell-based
PC-3 [9] = assay: Induction of apoptosis in human PC3 cells assessed as increase in cleaved caspase 9 levels at 2.5 uM after 24 hrs by Western blot analysis; assay type: functional, cell-based
PC-3 [10] = assay: Induction of apoptosis in human PC3 cells assessed as increase in cleaved caspase 3 levels at 2.5 uM after 24 hrs by Western blot analysis; assay type: functional, cell-based
PC-3 [11] = assay: Induction of apoptosis in human PC3 cells assessed as increase in survivin levels at 2.5 uM after 24 hrs by Western blot analysis; assay type: functional, cell-based
PC-3 [12] = assay: Induction of apoptosis in human PC3 cells assessed as increase in cleaved PARP levels at 2.5 uM after 24 hrs by Western blot analysis; assay type: functional, cell-based
PC-3 [13] = assay: Induction of apoptosis in human PC3 cells assessed as reduction in inactive pro-caspase-9 levels at 2.5 uM after 24 hrs by Western blot analysis; assay type: functional, cell-based
PC-3 [14] = assay: Induction of apoptosis in human PC3 cells assessed as reduction in full length PARP protein levels at 2.5 uM after 24 hrs by Western blot analysis; assay type: functional, cell-based
HEL = assay: Cytotoxicity against human HEL cells assessed as reduction in cell viability after 48 hrs by MTT assay; assay type: functional, cell-based; details: Homo sapiens, HEL, 48 h
K562 = assay: Cytotoxicity against human K562 cells assessed as reduction in cell viability after 48 hrs by MTT assay; assay type: functional, cell-based; details: Homo sapiens, K562, 48 h
MDA-MB-231 = assay: Cytotoxicity against human MDA-MB-231 cells assessed as reduction in cell viability after 48 hrs by MTT assay; assay type: functional, cell-based; details: Homo sapiens, MDA-MB-231, 48 h
PC-3 [15] = assay: Cytotoxicity against human PC3 cells assessed as reduction in cell viability after 48 hrs by MTT assay; assay type: functional, cell-based
[16] = Cytotoxicity against human WM9 cells assessed as reduction in cell viability after 48 hrs by MTT assay; assay type: functional, cell-based; details: Homo sapiens, WM9, 48 h
PC-3 [17] = assay: Potency index, ratio of cisplatin IC50 to compound IC50 for human PC3 cells; assay type: functional
PC-3 [18] = assay: Potency index, ratio of 5-fluorouracil IC50 to compound IC50 for human PC3 cells; assay type: functional
PC-3 [19] = assay: Induction of apoptosis in human PC3 cells assessed as viable cells at 3 uM after 24 hrs by Annexin V-FITC/propidium iodide double staining based flow cytometry (reference value: 97.9%); assay type: functional; details: PC-3, 24 h, read-out: Activity
PC-3 [20] = assay: Induction of apoptosis in human PC3 cells assessed as early apoptotic cells at 3 uM after 24 hrs by Annexin V-FITC/propidium iodide double staining based flow cytometry (reference value: 0.8%); assay type: functional
PC-3 [21] = assay: Induction of apoptosis in human PC3 cells assessed as late apoptotic cells at 3 uM after 24 hrs by Annexin V-FITC/propidium iodide double staining based flow cytometry (reference value: 0.4%); assay type: functional
PC-3 [22] = assay: Induction of apoptosis in human PC3 cells assessed as necrotic cells at 3 uM after 24 hrs by Annexin V-FITC/propidium iodide double staining based flow cytometry (reference value: 0.9%); assay type: functional
PC-3 [23] = assay: Induction of apoptosis in human PC3 cells assessed as viable cells at 2 uM after 24 hrs by Annexin V-FITC/propidium iodide double staining based flow cytometry (reference value: 97.9%); assay type: functional; details: PC-3, 24 h, read-out: Activity
PC-3 [24] = assay: Induction of apoptosis in human PC3 cells assessed as early apoptotic cells at 2 uM after 24 hrs by Annexin V-FITC/propidium iodide double staining based flow cytometry (reference value: 0.8%); assay type: functional
PC-3 [25] = assay: Induction of apoptosis in human PC3 cells assessed as late apoptotic cells at 2 uM after 24 hrs by Annexin V-FITC/propidium iodide double staining based flow cytometry (reference value: 0.4%); assay type: functional
PC-3 [26] = assay: Induction of apoptosis in human PC3 cells assessed as necrotic cells at 2 uM after 24 hrs by Annexin V-FITC/propidium iodide double staining based flow cytometry (reference value: 0.9%); assay type: functional
PC-3 [27] = assay: Induction of apoptosis in human PC3 cells assessed as viable cells at 1 uM after 24 hrs by Annexin V-FITC/propidium iodide double staining based flow cytometry (reference value: 97.9%); assay type: functional; details: PC-3, 24 h, read-out: Activity
PC-3 [28] = assay: Induction of apoptosis in human PC3 cells assessed as early apoptotic cells at 1 uM after 24 hrs by Annexin V-FITC/propidium iodide double staining based flow cytometry (reference value: 0.8%); assay type: functional
PC-3 [29] = assay: Induction of apoptosis in human PC3 cells assessed as late apoptotic cells at 1 uM after 24 hrs by Annexin V-FITC/propidium iodide double staining based flow cytometry (reference value: 0.4%); assay type: functional
PC-3 [30] = assay: Induction of apoptosis in human PC3 cells assessed as necrotic cells at 1 uM after 24 hrs by Annexin V-FITC/propidium iodide double staining based flow cytometry (reference value: 0.9%); assay type: functional
PC-3 [31] = assay: Induction of apoptosis in human PC3 cells assessed as viable cells at 0.5 uM after 24 hrs by Annexin V-FITC/propidium iodide double staining based flow cytometry (reference value: 97.9%); assay type: functional; details: PC-3, 24 h, read-out: Activity
PC-3 [32] = assay: Induction of apoptosis in human PC3 cells assessed as early apoptotic cells at 0.5 uM after 24 hrs by Annexin V-FITC/propidium iodide double staining based flow cytometry (reference value: 0.8%); assay type: functional
PC-3 [33] = assay: Induction of apoptosis in human PC3 cells assessed as late apoptotic cells at 0.5 uM after 24 hrs by Annexin V-FITC/propidium iodide double staining based flow cytometry (reference value: 0.4%); assay type: functional
PC-3 [34] = assay: Induction of apoptosis in human PC3 cells assessed as necrotic cells at 0.5 uM after 24 hrs by Annexin V-FITC/propidium iodide double staining based flow cytometry (reference value: 0.9%); assay type: functional

With `COc1cc(NC(=S)Nc2ccc(F)cc2)c2cc1Oc1ccc(cc1)C[C@H]1c3cc(c(OC)cc3CCN1C)Oc1c(OC)c(OC)cc3c1[C@H](C2)N(C)CC3` [listing 1 of 2 here] the Activity (PC-3 [1]) was “Active”, the Activity (PC-3 [2]) was “Active” and the Activity (PC-3 [3]) was “Active”. The Activity (PC-3 [4]) was “Active”, the Activity (PC-3 [5]) was “Active” and the Activity (PC-3 [6]) was “Dose-dependent effect”. The Activity (PC-3 [7]) was “Active”, the Activity (PC-3 [8]) was “Active” and the Activity (PC-3 [9]) was “Active”. For the same compound, the Activity (PC-3 [10]) was “Active”, the Activity (PC-3 [11]) was “Active” and the Activity (PC-3 [12]) was “Active”. For the same compound, the Activity (PC-3 [13]) was “Active” and the Activity (PC-3 [14]) was “Active”.

`COc1cc(NC(=S)Nc2ccc(F)cc2)c2cc1Oc1ccc(cc1)C[C@H]1c3cc(c(OC)cc3CCN1C)Oc1c(OC)c(OC)cc3c1[C@H](C2)N(C)CC3` [listing 2 of 2 here] showed an IC50 (HEL) of 2.55 µM, an IC50 (K562) of 1.56 µM and an IC50 (MDA-MB-231) of 2.03 µM. For the same compound, the IC50 (PC-3 [15]; Homo sapiens, PC-3, 48 h) was 0.64 µM, the IC50 [16] was 2.6 µM and the “Ratio IC50” value (PC-3 [17]) was 26. The “Ratio IC50” value (PC-3 [18]) was 31, the viability at 3 µM (PC-3 [19]) was 63.3% and the Activity (PC-3 [20]) was 34.4%. The Activity (PC-3 [21]) was 2.1%, the Activity (PC-3 [22]) was 0.1% and the viability at 2 µM (PC-3 [23]) was 83.3%. The Activity (PC-3 [24]) was 13.6%, the Activity (PC-3 [25]) was 2.8% and the Activity (PC-3 [26]) was 0.4%. It also gave a viability at 1 µM (PC-3 [27]) of 87.7%, an Activity (PC-3 [28]) of 11.63% and an Activity (PC-3 [29]) of 0.7%. For the same compound, the Activity (PC-3 [30]) was 0.3%, the viability at 0.5 µM (PC-3 [31]) was 93.3% and the Activity (PC-3 [32]) was 5.3%. It also gave an Activity (PC-3 [33]) of 0.9% and an Activity (PC-3 [34]) of 0.5%.

`COc1cc(NC(=O)NCCCl)c2cc1Oc1ccc(cc1)C[C@H]1c3cc(c(OC)cc3CCN1C)Oc1c(OC)c(OC)cc3c1[C@H](C2)N(C)CC3` showed an IC50 (HEL) of 9.34 µM, an IC50 (K562) of 6.24 µM and an IC50 (MDA-MB-231) of 13.3 µM. For the same compound, the IC50 (PC-3 [15]; Homo sapiens, PC-3, 48 h) was 4.91 µM and the IC50 [16] was 4.18 µM.

In the case of `COc1cc(NC(=O)Nc2ccc(F)cc2)c2cc1Oc1ccc(cc1)C[C@H]1c3cc(c(OC)cc3CCN1C)Oc1c(OC)c(OC)cc3c1[C@H](C2)N(C)CC3`, the IC50 (HEL) is reported as 4.46 µM, the IC50 (K562) is reported as 1.81 µM and the IC50 (MDA-MB-231) is reported as 5.02 µM. For the same compound, the IC50 (PC-3 [15]; pc-3) was 2.07 µM and the IC50 [16] was 4.19 µM.
